Data set [1] concerns the target nAChRs comprised of α4 and β2 subunits (Rattus norvegicus, UniProt P09483+P12390). As to the kind of experiment: In vitro inhibition of 3H-cytisine binding. Here is the method:
In Vitro Inhibition of ^3H-cytisine Binding
The predominant subtype with high affinity for nicotine is comprised of α4 and β2 subunits. nAChRs of the latter type can selectively be labelled by the nicotine agonist ^3H-cytisine.
Tissue Preparation: Preparations are performed at 0–4° C. unless otherwise indicated. […] The homogenate is centrifuged at 27,000×g for 10 min. The supernatant is discarded and the pellet is resuspended in fresh buffer and centrifuged a second time. The final pellet is resuspended in fresh buffer (35 ml per g of original tissue) and used for binding assays.
Assay: Aliquots of 500 μl homogenate are added to 25 μl of test solution and 25 μl of ^3H-cytisine (1 nM, final concentration), mixed and incubated for 90 min at 2° C. Non-specific binding is determined using (−)-nicotine (100 μM, final concentration). After incubation the samples are added 5 ml of ice-cold buffer and poured directly onto Whatman GF/C glass fibre filters under suction and immediately washed with 2×5 ml ice-cold buffer. The amount of radioactivity on the filters is determined by conventional liquid scintillation counting. Specific binding is total binding minus non-specific binding.

Data set [2] addresses T1, neuronal nicotinic receptors (α4β2 subtype of nicotinic receptors) (Rattus norvegicus, UniProt P09483+P12390).
T1 construct: The forebrain (÷cerebellum) from a male Wistar rat (150–250 g) is homogenized; from tissue; host or cells: rat forebrain (without cerebellum) membrane homogenate
As to the kind of experiment: In vitro inhibition of 3H-epibatidin binding. Here is the method:
In Vitro Inhibition of ^3H-epibatidin Binding
The high affinity binding site for ^3H-epibatidin is most certainly binding to the α4β2 subtype of nicotinic receptors. The identity of the low affinity site is still unknown; does it represent a second nicotinic receptor or a second site in the same receptor.
Tissue preparation: Preparations are performed at 0–4° C. unless otherwise indicated. The forebrain (÷cerebellum) from a male Wistar rat (150–250 g) is homogenized for 10–20 sec in 20 ml Tris, HCl (50 mM, pH 7.4) using an Ultra-Turrax homogenizer. The tissue suspension is centrifuged at 27,000×g for 10 min. The supernatant is discarded and the pellet is washed three times by centrifugation at 27,000×g for 10 min in 20 ml fresh buffer, and the final pellet is resuspended in fresh buffer (400 ml per g of original tissue) and used for binding assays.
Assay: Aliquots of 2.0 ml homogenate are added to 0.100 ml of test solution and 0.100 ml of ^3H-epibatidin (0.3 nM, final concentration), mixed and incubated for 60 min at room temperature. Non-specific binding is determined using (−)-nicotine (30 μM, final concentration). After incubation the samples are poured directly onto Whatman GF/C glass fibre filters (presoaked in 0.1% PEI for at least 20 min) under suction and immediately washed with 2×5 ml ice-cold buffer. The amount of radioactivity on the filters is determined by conventional liquid scintillation counting. Specific binding is total binding minus non-specific binding.

Data set [3] has as its target nAChR formed by the α7 subunit isoform (Rattus norvegicus, UniProt Q05941). The data set is described as follows: biochemical. Type of data set: binding.
The conditions of data set [4]: times that of morphine; cited from earlier work.
[5] abbreviates: rat cerebral cortex homogenate, 1 nM 3H-cytisine, read-out: 3H-cytisine IC50.
Where [6] appears, read: rat forebrain homogenate, 0.3 nM 3H-epibatidin, read-out: 3H-epibatidin IC50.

Broadly, the melting point is the temperature, or range, at which the solid turns liquid. As usually defined, the IC50 is the midpoint of a concentration-inhibition curve.

Where a name gives a salt, the structure may show the parent alone. Read-outs that look alike come from different tables or passages of the source.

nAChR formed by the α7 subunit isoform, sequence (Q05941 23-502): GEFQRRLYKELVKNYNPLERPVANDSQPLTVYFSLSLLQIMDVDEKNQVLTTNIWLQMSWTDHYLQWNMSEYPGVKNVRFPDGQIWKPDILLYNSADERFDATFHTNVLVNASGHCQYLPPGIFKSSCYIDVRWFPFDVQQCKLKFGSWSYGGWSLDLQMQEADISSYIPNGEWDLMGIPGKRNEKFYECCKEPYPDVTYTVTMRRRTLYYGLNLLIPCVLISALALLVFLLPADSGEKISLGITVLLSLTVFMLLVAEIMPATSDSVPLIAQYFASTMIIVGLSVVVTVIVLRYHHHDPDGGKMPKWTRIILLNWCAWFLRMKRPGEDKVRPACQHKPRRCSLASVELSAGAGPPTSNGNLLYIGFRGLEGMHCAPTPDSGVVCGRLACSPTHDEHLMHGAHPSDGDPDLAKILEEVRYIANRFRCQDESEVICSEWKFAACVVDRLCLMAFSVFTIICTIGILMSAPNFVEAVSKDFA
T1 sequence (P09483 31-630): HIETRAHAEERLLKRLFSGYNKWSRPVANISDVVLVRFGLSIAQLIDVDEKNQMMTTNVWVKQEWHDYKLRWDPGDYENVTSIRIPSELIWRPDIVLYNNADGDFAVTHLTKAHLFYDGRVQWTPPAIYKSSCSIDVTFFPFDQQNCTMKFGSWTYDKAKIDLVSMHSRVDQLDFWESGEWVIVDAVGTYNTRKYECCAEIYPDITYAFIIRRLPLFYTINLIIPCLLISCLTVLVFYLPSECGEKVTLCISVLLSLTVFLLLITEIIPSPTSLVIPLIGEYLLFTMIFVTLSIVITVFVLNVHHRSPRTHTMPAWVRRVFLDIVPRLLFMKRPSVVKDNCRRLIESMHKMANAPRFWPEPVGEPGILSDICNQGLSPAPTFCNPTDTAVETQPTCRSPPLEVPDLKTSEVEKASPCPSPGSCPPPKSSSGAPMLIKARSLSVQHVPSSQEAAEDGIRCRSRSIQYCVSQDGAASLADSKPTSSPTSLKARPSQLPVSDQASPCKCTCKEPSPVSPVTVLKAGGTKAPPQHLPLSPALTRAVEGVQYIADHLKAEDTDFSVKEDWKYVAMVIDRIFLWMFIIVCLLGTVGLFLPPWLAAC
T1 sequence (P12390 25-500): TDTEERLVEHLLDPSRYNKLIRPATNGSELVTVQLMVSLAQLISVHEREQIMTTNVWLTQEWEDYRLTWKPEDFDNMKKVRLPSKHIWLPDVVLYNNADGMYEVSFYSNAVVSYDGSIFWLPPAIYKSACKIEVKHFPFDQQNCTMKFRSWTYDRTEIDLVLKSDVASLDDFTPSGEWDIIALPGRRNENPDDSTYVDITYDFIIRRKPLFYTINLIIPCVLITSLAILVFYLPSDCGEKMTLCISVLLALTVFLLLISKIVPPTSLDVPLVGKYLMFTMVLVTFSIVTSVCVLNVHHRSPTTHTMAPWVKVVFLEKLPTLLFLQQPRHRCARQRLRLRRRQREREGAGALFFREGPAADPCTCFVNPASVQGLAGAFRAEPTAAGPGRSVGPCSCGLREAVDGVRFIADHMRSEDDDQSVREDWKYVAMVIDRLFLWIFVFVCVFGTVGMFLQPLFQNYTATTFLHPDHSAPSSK
nAChRs comprised of α4 and β2 subunits, sequence (P09483 31-630): as the sequence (P09483 31-630) above
nAChRs comprised of α4 and β2 subunits, sequence (P12390 25-500): as the sequence (P12390 25-500) above

`c1cncc(OC2CCCNCC2)c1` (racemic) (as salt: fumaric acid salt) [Compound 7b, (±)-4-Oxy-(3-pyridyl)-homopiperidine fumaric acid salt] showed a melting point of 117 to 119 °C.
On to `CN1CCC(Oc2cccnc2)C1` (racemic) [Compound 1a, (±)-1-Methyl-3-oxy-(3-pyridyl)-pyrrolidine], for which the values for the IC50 in data set [1] (setting [5]), in data set [2] (setting [6]) and in data set [3] were 100 nM, 700 nM and 16000 nM, respectively.
Consider `c1cncc(OC2CCNC2)c1` (racemic) [Compound 1b, (±)-3-Oxy-(3-pyridyl)-pyrrolidine], for which the IC50 is 70 nM in data set [1], 410 nM in data set [2] and greater than 30000 nM in data set [3] (read-out: 3H-α-bungarotoxin IC50).
In the case of `CN1CCCC(Oc2cccnc2)C1` (racemic) [Compound 3a, (±)-1-Methyl-3-oxy-(3-pyridyl)-piperidine], the values for the IC50 in data set [1] (setting [5]), in data set [2] (setting [6]) and in data set [3] were 190 nM, 720 nM and 19000 nM, respectively.
For `c1cncc(OC2CCCNCC2)c1` (racemic) [Compound 7b, (±)-4-Oxy-(3-pyridyl)-homopiperidine fumaric acid salt] the same measures were 60 nM, 300 nM and 20000 nM.
For `Clc1ccc(C2CC3CCC2N3)cn1` (centres unmarked) [Epibatidine], the “analgesic potency relative to morphine” value in data set [4] was roughly 500 times.

The values above are taken from patent US7202237B2, “Pyridylether derivatives, their preparation and use” (NeuroSearch A/S, priority 1997, dated 2007).
